Measurements: patent US8193203B2, “Bicyclic compounds having activity at the CXCR4 receptor” (Allergan, Inc., priority 2008, dated 2012)

Biological target: T1, human CXCR4 receptor (Homo sapiens, UniProt P61073)
T1 construct: expressed in transfected cells
Experiment: Measurement of intracellular Ca+2 responses (FLIPR), antagonism of the SDF-1α response
Type: cell-based
Conditions: for IC50: HEK-Gqi5 cells stably expressing human CXCR4, Fluo-4 FLIPR, antagonism of SDF-1α 1.9 nM (EC65); for CXCR4 (% Inh): percent antagonism of SDF-1α 1.9 nM (EC65) response, HEK-Gqi5 human CXCR4 cells, value in brackets
Outline: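 HEK-Gqi5 cells stably expressing CXCR4, Fluo-4-loaded (2 uM, 40 min, 37 °C), read on FLIPR. Compound (2.44-40,000 nM) added first for agonism, then SDF-1α at 1.9 nM final (EC65); IC50 and percent antagonism from second-addition calcium signal.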

T1 sequence (P61073 whole entry): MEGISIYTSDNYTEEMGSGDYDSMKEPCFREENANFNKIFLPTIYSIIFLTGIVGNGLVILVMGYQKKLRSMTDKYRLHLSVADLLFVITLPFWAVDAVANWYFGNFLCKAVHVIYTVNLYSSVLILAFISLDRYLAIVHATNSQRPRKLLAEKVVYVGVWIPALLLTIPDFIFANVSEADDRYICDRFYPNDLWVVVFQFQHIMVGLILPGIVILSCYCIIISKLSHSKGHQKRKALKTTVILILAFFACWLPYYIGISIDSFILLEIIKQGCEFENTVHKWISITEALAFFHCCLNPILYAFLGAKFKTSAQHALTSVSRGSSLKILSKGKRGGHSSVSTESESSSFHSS

SMILES	IC50 (values in nM) [nM]	CXCR4 (% Inh) [%]	IC50 (values given in μM) [nM]
CCN(CC)CCNc1nc(NC2CCN(Cc3c(OC)cccc3N(C)C)CC2)c2cc(OC)c(OC)cc2n1 [Compound 41, N2-(2-(Diethylamino)ethyl)-N4-(1-(2-(dimethylamino)-6-methoxybenzyl)piperidin-4-yl)-6,7-dimethoxyquinazoline-2,4-diamine]	360	100	–
CCN(CC)CCCNc1nc(NC2CCN(Cc3ccccc3N(C)C)CC2)c2cc(OC)c(OC)cc2n1 [Compound 30, N2-(3-(Diethylamino)propyl)-N4-(1-(2-(dimethylamino)benzyl)piperidin-4-yl)-6,7-dimethoxyquinazoline-2,4-diamine]	270	100	–
COc1cc2nc(NC[C@@H](O)CO)nc(NC3CCN(Cc4c(OCCN(C)C)cccc4N(C)C)CC3)c2cc1OC [Compound 194, 3-({4-[(1-{2-(Dimethylamino)-6-[2-(dimethylamino)ethoxy]benzyl}piperidin-4-yl)amino]-6,7-dimethoxyquinazolin-2-yl}amino)propane-1,2-diol]	74	96	–
COc1cc2nc(NCc3cc[nH]n3)nc(NC3CCN(Cc4c(OCCN(C)C)cccc4N(C)C)CC3)c2cc1OC [Compound 216, N˜4˜-(1-{2-(Dimethylamino)-6-[2-(dimethylamino)ethoxy]benzyl}piperidin-4-yl)-6,7-dimethoxy-N˜2˜-(1H-pyrazol-3-ylmethyl)quinazoline-2,4-diamine]	32	100	–
CCN(CC)CCCNc1nc(NC2CCN(Cc3ccccc3N3CCCC3)CC2)c2cc(OC)c(OC)cc2n1 [Compound 51]	–	92	1100
COc1cc2nc(NC[C@H](O)CO)nc(NC3CCN(Cc4c(OCCN(C)C)cccc4N(C)C)CC3)c2cc1OC [Compound 195, 3-({4-[(1-{2-(Dimethylamino)-6-[2-(dimethylamino)ethoxy]benzyl}piperidin-4-yl)amino]-6,7-dimethoxyquinazolin-2-yl}amino)propane-1,2-diol]	31	98	–
CCN(CC)C(=O)CCNc1nc(NC2CCN(Cc3ccccc3N(C)C)CC2)c2cc(OC)c(OC)cc2n1 [Compound 31]	–	92	2400
CCN(CC)CCCNc1nc(NC2CCN(Cc3ccccc3N(C)C)CC2)c2ccccc2n1 [Compound 35, N2-(3-(Diethylamino)propyl)-N4-(1-(2-(dimethylamino)benzyl)piperidin-4-yl)quinazoline-2,4-diamine]	330	90	–
CCN(CC)CCCNc1nc(NC2CCN(Cc3c(OC(C)C)cccc3N(C)C)CC2)c2cc(OC)c(OC)cc2n1 [Compound 139, N˜2˜-[3-(Diethylamino)propyl]-N˜4˜-{1-[2-(dimethylamino)-6-isopropoxybenzyl]piperidin-4-yl}-6,7-dimethoxyquinazoline-2,4-diamine]	–	93	1400
COc1cccc(N(C)C)c1CN1CCC(Nc2nc(NCC3CCN(C(=O)OC(C)(C)C)C3)nc3ccccc23)CC1 (centres unmarked) [Compound 106, tert-Butyl 3-((4-(1-(2-(Dimethylamino)-6-methoxybenzyl)piperidin-4-ylamino)quinazolin-2-ylamino)methyl)pyrrolidine-1-carboxylate]	–	73	2300
COc1cc2nc(NCCCN)nc(NC3CCN(Cc4c(OCCN(C)C)cccc4N(C)C)CC3)c2cc1OC [Compound 182, N˜2˜-(3-Aminopropyl)-N˜4˜-(1-{2-(dimethylamino)-6-[2-(dimethylamino)ethoxy]benzyl}piperidin-4-yl)-6,7-dimethoxyquinazoline-2,4-diamine]	47	94	–
COc1cccc(N(C)C)c1CN1CCC(Nc2nc(NCC[C@@H]3CCCN3C(=O)OC(C)(C)C)nc3ccccc23)CC1 [Compound 114, (S)-tert-Butyl 2-(2-(4-(1-(2-(Dimethylamino)-6-methoxybenzyl)piperidin-4-ylamino)quinazolin-2-ylamino)ethyl)pyrrolidine-1-carboxylate]	–	75	2100
COc1cc2nc(SCCN(C)C)nc(NC3CCN(Cc4c(OCCN(C)C)cccc4N(C)C)CC3)c2cc1OC [Compound 231, N-(1-(2-(Dimethylamino)-6-(2-(dimethylamino)ethoxy)benzyl)piperidin-4-yl)-2-(2-(dimethylamino)ethylthio)-6,7-dimethoxyquinazolin-4-amine]	131	96	–

Other lines, results leading:

IC50 (values in nM) [nM]	CXCR4 (% Inh) [%]	IC50 (values given in μM) [nM]	SMILES
150	100	–	CCN(CC)CCCNc1nc(NC2CCN(Cc3c(OC)cccc3N(C)C)CC2)c2ccccc2n1 [Compound 48, N2-(3-(Diethylamino)propyl)-N4-(1-(2-(dimethylamino)-6-methoxybenzyl)piperidin-4-yl)quinazoline-2,4-diamine]
387	96	–	COc1cccc(N(C)C)c1CN1CCC(Nc2nc(NCCc3c[nH]cn3)nc3ccccc23)CC1 [Compound 119, N2-(2-(1H-Imidazol-4-yl)ethyl)-N4-(1-(2-(dimethylamino)-6-methoxybenzyl)piperidin-4-yl)quinazoline-2,4-diamine]
215	97	–	CNCCCCNc1nc(NC2CCN(Cc3c(OC)cccc3N(C)C)CC2)c2ccccc2n1 [Compound 102, N4-(1-(2-(Dimethylamino)-6-methoxybenzyl)piperidin-4-yl)-N2-(4-(methylamino)butyl)quinazoline-2,4-diamine]
319	95	–	COc1cccc(N(C)C)c1CN1CCC(Nc2nc(NCC[C@H]3CCCN3)nc3ccccc23)CC1 [Compound 117, (R)—N-4-(1-(2-(Dimethylamino)-6-methoxybenzyl)piperidin-4-yl)-N2-(2-(pyrrolidin-2-yl)ethyl)quinazoline-2,4-diamine]
–	96	2900	COc1cccc(N(C)C)c1CN1CCC(Nc2nc(NCCNC(=O)NC(C)C)nc3ccccc23)CC1 [Compound 126, 1-(2-(4-(1-(2-(Dimethylamino)-6-methoxybenzyl)piperidin-4-ylamino)quinazolin-2-ylamino)ethyl)-3-isopropylurea]
762	97	–	COc1cccc(N(C)C)c1CN1CCC(Nc2nc(NCCNC(C)=O)nc3ccccc23)CC1 [Compound 118, N-(2-(4-(1-(2-(Dimethylamino)-6-methoxybenzyl)piperidin-4-ylamino)quinazolin-2-ylamino)ethyl)acetamide]
